Data on twelve compounds can be found in PubChem BioAssay (NCI).

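Protocol summary: plate cells (96-well), add compound at 5 concentrations, incubate 48 h, interpolate endpoints linearly. The concentration for 50% growth inhibition is given as GI50. Definition used: TGI = concentration required for complete inhibition of growth.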

What all share (assay): NCI tumour cell line growth inhibition, 48 h
In assay [1] the test system is M14 melanoma.
Assay [2] has as its system DU-145 prostate.
Assay [3] concerns RPMI-8226 leukemia.
Assay [4] relates to HS 578T breast.
Assay [5] concerns PC-3 prostate.
Assay [6] deals with SF-268 CNS.
Assay [7] deals with SK-MEL-5 melanoma.
Assay [8] has as its system SK-MEL-2 melanoma.
For assay [9], the system named is OVCAR-3 ovarian.
Assay [10] concerns U251 CNS.

With `CN[C@@H](C)C(=O)N[C@H](C(=O)N1CCC[C@H]1C(=O)Nc1snnc1-c1ccccc1)C1CCCCC1`, the GI50 in [1] was 24600 nM; in assay [2] it was 65.4 µM; in [3], 43900 nM; in assay [4] it was 72800 nM; in [5], 48.6 µM; in assay [6] it was greater than 86.1 µM. For the same compound, the GI50 was 16.7 µM in assay [7], 27.4 µM in [8], 58500 nM in assay [9] and 36300 nM in [10]. The TGI in assay [1] is 55.8 µM; in [2], greater than 100 µM; in assay [3], greater than 100 µM; in [4], greater than 100 µM; in [5], greater than 100 µM; in [6], greater than 100 µM. For the same compound, the TGI was 33.9 µM in [7], greater than 63.9 µM in assay [8], greater than 100 µM in [9] and greater than 100 µM in [10].
Regarding `c1ccc2[nH]c(-c3ccc(-c4nccc5c4[nH]c4ccccc45)cc3)nc2c1`, the GI50 in assay [1] was 1790 nM; in assay [2], 4.02 µM; in assay [3], 2480 nM; in assay [4], 2230 nM; in [5], 8.59 µM; in assay [6], 2.89 µM. The GI50 in [7] was 3.69 µM; in [8] it was 1.99 µM; in assay [9], 1800 nM; in assay [10], 2740 nM. Further, the TGI in [1] came to 3.57 µM; in assay [2], 16.2 µM; in [3] it was 5.61 µM; in assay [4], 5.93 µM; in assay [5], 25.1 µM; in [6], 10.2 µM. Moreover, the TGI was found to be 14.3 µM in [7], 4.34 µM in assay [8], 3.64 µM in [9] and 7.83 µM in assay [10].
In the case of `N#CC(NC12CC3CC(CC(C3)C1)C2)c1ccc2c(c1)OCO2` (centres undefined), the TGI in [1], in assay [2], in [3], in [4], in [5] and in assay [6] was greater than 100 µM each time. The TGI in assay [7], in assay [8], in assay [9] and in assay [10] was greater than 100 µM each time.
With `COc1cc(OC(=O)c2ccccc2)cc2c1C(=O)C=CC2=O`, the TGI worked out at 32.5 µM in assay [1]; 34.4 µM in [2]; 29.7 µM in assay [3]; 69.3 µM in [4]; 28.5 µM in assay [5]; 36.3 µM in [6]. In addition, the TGI was 30.6 µM in assay [7], 40.4 µM in [8], 14.2 µM in assay [9] and 38.2 µM in [10].
As for `FC(F)(F)c1ccc(Nc2nc(-c3c(C(F)(F)F)nc4ccccn34)cs2)cc1`, the GI50 in assay [1] was 43 nM; in [2] it was 0.0402 µM; in [3], 73.9 nM; in [4], 35.6 nM; in assay [5], 0.0425 µM; in assay [6], 0.0754 µM. In addition, the GI50 in assay [7] is 0.0358 µM; in [8] it was 0.0734 µM; in assay [9], 26.4 nM; in assay [10], 76.4 nM. Also, the TGI in [1] came out at 1.22 µM; in assay [2] it was 2.15 µM; in assay [3] it was 6.01 µM; in [4] it was 2.12 µM; in assay [5] it was 8.54 µM; in assay [6], 10.7 µM. The TGI came out at 1.49 µM in assay [7], 6.76 µM in assay [8], 0.0787 µM in assay [9] and 11 µM in [10].
As to `COc1ccc2nc3cccc([N+](=O)[O-])c3c(NCCCCCC(=O)O)c2c1`, the GI50 is 15 nM in assay [1]; 0.043 µM in assay [2]; 13.1 nM in assay [3]; 456 nM in [4]; 0.0755 µM in [6]; 0.0116 µM in [7]. The values for the GI50 in [8], in assay [9] and in [10] were 0.0342 µM, 120 nM and 22.2 nM, respectively. Also, the TGI in assay [1] stood at 0.0466 µM; in assay [2], 1.02 µM; in [3] it was 0.052 µM; in assay [4] it was 2.03 µM; in assay [5], 1.36 µM; in assay [6] it was 0.701 µM. In addition, the TGI in assay [7] amounted to 0.0694 µM; in assay [8], 0.117 µM; in assay [9], 2.64 µM; in assay [10] it was 2.46 µM.
On to `COc1cc(CSc2nc3ccc(C)cc3c(=O)n2-c2ccccc2)cc(OC)c1OC`, for which the GI50 in assay [1] was 1400 nM; in [2] it was 3.59 µM; in assay [3], 3280 nM; in assay [4], 2160 nM; in assay [5], 3.25 µM; in [6] it was 6.37 µM. Further, the GI50 in [7] is 0.435 µM; in assay [8] it was 3.52 µM; in [9], 1950 nM; in [10], 3770 nM. The TGI in [1], in assay [2], in assay [3], in assay [4], in assay [5] and in assay [6] was greater than 100 µM in each case. Moreover, the TGI in [7] was 19.9 µM; in assay [8] it was greater than 100 µM; in assay [9], greater than 27.3 µM; in [10] it was greater than 100 µM.
Regarding `Cc1nn2c(/C=C3\C(=O)Nc4ccc(Cl)cc43)c(C)nc2s1`, the GI50 in [1] was 23200 nM; in [2], 86.5 µM; in assay [3] it was 33200 nM; in [4], 61800 nM; in assay [5], 21.3 µM; in assay [6], 43.2 µM. Also, the GI50 is 10.1 µM in assay [7], 22.2 µM in assay [8], 23300 nM in [9] and 46500 nM in [10]. The TGI in assay [1], in assay [2], in [3], in [4], in assay [5] and in [6] was greater than 100 µM in each case. Besides, the TGI is greater than 100 µM in assay [7], 82.4 µM in [8], greater than 100 µM in assay [9] and greater than 100 µM in [10].
Take `C=C1CCC2C3(C)COC(c4ccc(N(C)C)cc4)OC3CCC2(C)C1C/C=C1/C(=O)OCC1O` (centres undefined): the GI50 is 4100 nM in assay [1]; 3.01 µM in assay [2]; 1230 nM in [3]; 2130 nM in assay [4]; 2.32 µM in assay [5]; 3.78 µM in [6]. Besides, the GI50 in assay [7] is 7.2 µM; in assay [8], 5.15 µM; in [9], 1960 nM; in assay [10], 2100 nM. Besides, the TGI was determined as 16.7 µM in assay [1]; 10.4 µM in assay [2]; 3.8 µM in assay [3]; 6.69 µM in assay [4]; 9.83 µM in assay [5]; 14.4 µM in assay [6]. Also, the TGI in assay [7] was found to be 20.3 µM; in assay [8] it was 13.7 µM; in assay [9], 3.98 µM; in assay [10], 5.21 µM.
With `O=[N+]([O-])O.[Cu+2].[NH-]CC[NH-].[NH-]CC[NH-]`, the GI50 in assay [1] was greater than 10000 nM; in assay [2], greater than 10 µM; in assay [3] it was greater than 10000 nM; in assay [4], greater than 10000 nM; in [5] it was greater than 10 µM; in [6], greater than 10 µM. Also, the GI50 in assay [7] was greater than 10 µM; in assay [8], greater than 10 µM; in [9], greater than 10000 nM; in [10], greater than 10000 nM. Also, the TGI in assay [1], in assay [2], in assay [3], in assay [4], in assay [5] and in [6] was greater than 10 µM throughout. For the same compound, the TGI in assay [7], in assay [8], in assay [9] and in assay [10] was greater than 10 µM throughout.
With `O=C(O)CNC(=O)c1ccc(-c2ccccc2)cc1`, the TGI in assay [1], in [2], in [3], in [4], in assay [5] and in [6] was greater than 100 µM each time. The TGI in [7], in assay [8], in [9] and in [10] was greater than 100 µM in each case.
As to `COc1cc([C@@H]2OC[C@@H]3C(c4cc(OC)c5c(c4)OCO5)OC[C@@H]32)cc(OC)c1OC` (some centres undefined), the TGI in assay [1], in assay [2], in [3], in assay [4], in assay [5] and in assay [6] was greater than 100 µM each time. For the same compound, the TGI in [7], in assay [8], in assay [9] and in assay [10] was greater than 100 µM throughout.
